Where “and” joins values, the source holds several entries; their conditions need not be identical. Equal values may be shown once. Entries after “also recorded” stand apart in the source; their conditions may differ.
Tested on: SJSA-1 tumor xenografts
Assay: subcutaneous SJSA-1 xenograft with parenteral etoposide
Type: in vivo, CD-1 nude mice
Method: Combining systemic administration of etoposide + NU5455 in vivo
SJSA1 cells (1 x 10^7 cells/mouse in 50 µl, 50% v/v Matrigel) were implanted s.c. into the right flank of female CD-1 nude mice. When tumor volumes reached 103-121 mm3 mice were treated daily, for five consecutive days, with NU5455 (30 mg/kg or 100 mg/kg once -daily p.o. in NMP:Encapsin (30% aq):PEG4000 (1:6:3 v/v/v) ) or vehicle, followed immediately with etoposide (5 mg/kg i.p. in saline). Body weight and tumor volume measurements were taken daily during treatment and three times per week post -treatment. Tumor volume was calculated from two-dimensional electronic caliper measurements (Mitutoyo) using the equation ‘width2 x length/2’, where width was the smaller side, and length the longer dimension of the tumor. Mice were humanely killed when; (i) an adverse effect on clinical condition was evident, (ii) tumor bilateral measurements reached 10 mm x 10 mm, (iii) a tumor measurement in any di mension reached 15 mm, or (iv) at study termination. […]

Structure (SMILES): CN(C(=O)CN1CCOCC1)c1ccc2sc3c(-c4cccc5c(=O)cc(N6CC7CCC(C6)O7)oc45)cccc3c2c1 [NU5455]
- enhancement of etoposide antitumor effect (NU5455 30 mg/kg oral + etoposide 5 mg/kg i.p., 5 consecutive days): does not significantly enhance; also recorded: did not enhance it significantly
- body weight (NU5455 100 mg/kg oral + etoposide 5 mg/kg i.p.): increased weight loss by day 8
- enhancement of etoposide antitumor activity (NU5455 100 mg/kg oral + etoposide 5 mg/kg i.p., 5 sequential days): potentiated significantly
- animals requiring humane intervention (>15% body-weight loss) (day 8, NU5455 100 mg/kg oral + etoposide 5 mg/kg i.p.): 2 of 10 and 2
- tolerability, NU5455 alone (greater dose (100 mg/kg oral)): well tolerated by itself

Source: PMC6934184, “Selective DNA-PKcs inhibition extends the therapeutic index of localized radiotherapy and chemotherapy” (The Journal of Clinical Investigation, 2019)
